Columns and labels:
Assay type in all cases: cell-based, mouse
ERK1 = assay: Western blot for pERK or ERK in M2 cells; details: 5 μM 20S for 1, 4, or 8 hours (FIG. 10A)
Procedure: (§1) Western blot analysis—After treatments, cells were lysed in lysis buffer, protein concentrations determined using the Bio-Rad protein assay (Hercules, Calif. U.S.A.), and SDS-PAGE performed as previously described. Probing for native and phosphorylated ERKs was performed as previously reported.
(§2) (A) M2 cells at confluence were pretreated for four hours with RPMI containing 1% FBS, followed by treatment with control vehicle or 5 μM 20S oxysterol for 1, 4, or 8 hours. Next total cell extracts were prepared and analyzed for levels of native or phosphorylated ERK (pERK) using specific antibodies as previously described. Data from a representative of four experiments are shown, each treatment shown in duplicate samples. (B) M2 cells at confluence were pretreated for 2 hours with control vehicle (C) or 20 μM PD98059 (PD) in osteogenic medium as previously described. Next, a combination of 22R and 20S oxysterols (RS, 5 μM each) were added to appropriate wells as indicated. After 10 days of incubation, matrix mineralization was quantified by the ^45Ca incorporation assay as previously described. Data from a representative of three experiments are reported as the mean±SD of quadruplicate determinations, normalized to protein concentration (p<0.01 for RS vs. RS+PD). […] After 10 days, adipocytes were visualized by oil Red O staining and quantified by light microscopy as previously described. […]

ERK2 = assay: Western blot for pERK or ERK in M2 cells; details: 5 μM 20S for 1, 4, or 8 hours (FIG. 10A)
Procedure: as §1, §2

lipoprotein lipase (LPL) = assay: Northern blotting for lipoprotein lipase in M2 cells; details: 10 μM Tro with 10 μM 20S, 10 days (FIGS. 7C and D)
Procedure: RNA isolation and Northern blot analysis - Following treatment of cells under appropriate experimental conditions, total RNA was isolated using the RNA isolation kit from Stratagene (La Jolla, Calif., U.S.A.). Total RNA ([…]) was run on a 1% agarose/formaldehyde gel and transferred to Duralon-UV membranes (Strategene, CA, U.S.A.) and cross-linked with UV light. The membranes were hybridized overnight at 60° C. with ^32P-labeled mouse osteocalcin cDNA probe, mouse lipoprotein lipase (LPL), mouse adipocyte protein 2 (aP2) PCR-generated probes, human 28S or 18S rRNA probes obtained from Geneka Biotechnology (Montreal, Quebec, Canada) and Maxim Biotech (San Francisco, CA, U.S.A.), respectively. […] The extent of gene induction was determined by densitometry.
Test 2: (A) M2 cells at confluence were treated in RPMI containing 10% FBS with control vehicle or 10 μM troglitazone (Tro) in the absence or presence of 10 μM 20S or 22S oxysterols. After 10 days, adipocytes were visualized by oil Red O staining and quantified by light microscopy, shown in (B). […] After 10 days, total RNA was isolated and analyzed for lipoprotein lipase (LPL), adipocyte P2 gene (aP2) or 18S rRNA expression by Northern blotting as described (Ref). […]

In the case of `CC(C)CCC[C@](C)(O)[C@H]1CC[C@H]2[C@@H]3CC=C4C[C@@H](O)CC[C@]4(C)[C@H]3CC[C@@]21C` [20S, 20(S)-hydroxycholesterol], the “activation of ERK1” value (ERK1) is reported as “sustained activation”, the “activation of ERK2” value (ERK2) is reported as “sustained activation” and the “expression of lipoprotein lipase (LPL)” value (lipoprotein lipase (LPL)) is reported as “inhibition of the expression”.

Reference: US9532994B2, “Agents and methods for enhancing bone formation by oxysterols in combination with bone morphogenic proteins” (THE REGENTS OF THE UNIVERSITY OF CALIFORNIA, priority 2003, dated 2017)
